Test results from publication PMC7864192 (Cancers, 2021).
Values joined by “and” are separate entries in the source; they are usually repeats but may differ in a detail not shown here. Identical values can stand only once. Like-named read-outs stand apart in the source and are kept apart here.

How the values were obtained:
[1] = test system: SVOG-3e immortalized human granulosa cell line; assay: Cell viability drug screen (72 h), SVOG-3e control; type: cell-based; conditions: monotherapy
Procedure: (§1) KGN was cultured in conditions identical to AGCT-patient-derived cell lines.
(§2) Cell lines were seeded at a density of 500 cells/well in 40 uL in 384-well plates (Corning, NY, USA) with the Multidrop™ cell dispenser (Thermo Fischer Scientific, Waltham, MA, USA) and sealed with Breathe-Easy® membrane (Sigma-Aldrich, St. Louis, MO, USA) to prevent evaporation. The SVOG-3e line was seeded at 1000 cells/well due to contact-dependent growth requirements. For each cell line, three biological repeats and two technical repeats each were performed in order to ensure the validity of the drug screens. […] Subsequently, 11 drugs and 12 drug combinations were dispensed and all wells (excluding blanks and non-DMSO control wells) were normalized to 1% DMSO using the HP Tecan D300e Digital Dispenser (Hewlett-Packard, Palo Alto, CA, USA). […] After incubation, luminescence excitation was assessed in the Spectramax reader (Molecular Devices, San Jose, CA, USA) (top read, luminescence excitation at 500 nm) and raw data were processed in Microsoft Excel to subtract background luminescence. […]
(§3) Overall cell survival (in %) was plotted against the drug concentration range of each drug (in log10[μM]) using GraphPad Prism 8.3.1. […] The IC50 values were calculated based on the Chou–Talalay method using Compusyn software [55]. […]

[2] = test system: GCPA096 T1.XVI patient-derived AGCT cell line; assay: Cell viability drug screen (Cell Titer Glo 2.0, 72 h), mono- and combination therapy, GCPA096T1.XVI; conditions: for DRI (Fa=0,5): GCPA096T1XVI; for IC50: Homo sapiens, read-out: IC50 in monotherapy
Procedure: (§4) Cell lines were seeded at a density of 500 cells/well in 40 uL in 384-well plates (Corning, NY, USA) with the Multidrop™ cell dispenser (Thermo Fischer Scientific, Waltham, MA, USA) and sealed with Breathe-Easy® membrane (Sigma-Aldrich, St. Louis, MO, USA) to prevent evaporation. The SVOG-3e line was seeded at 1000 cells/well due to contact-dependent growth requirements. For each cell line, three biological repeats and two technical repeats each were performed in order to ensure the validity of the drug screens. […] Subsequently, 11 drugs and 12 drug combinations were dispensed and all wells (excluding blanks and non-DMSO control wells) were normalized to 1% DMSO using the HP Tecan D300e Digital Dispenser (Hewlett-Packard, Palo Alto, CA, USA). All drugs were applied in linear concentration ranges (Table 2), including 16 data points to enable combination drug testing at constant ratios (Table 3). Next, the plates were covered with the Breathe-Easy membrane and incubated. After 72 h, the Multidrop dispensed 15 uL per well of Cell Titer Glo 2.0 (Thermo Fischer Scientific, Waltham, MA, USA) and plates were incubated in the dark for 10 min. After incubation, luminescence excitation was assessed in the Spectramax reader (Molecular Devices, San Jose, CA, USA) (top read, luminescence excitation at 500 nm) and raw data were processed in Microsoft Excel to subtract background luminescence. […] Screens with a Z-factor value of >0.5 were used for further analysis.
(§5) Overall cell survival (in %) was plotted against the drug concentration range of each drug (in log10[μM]) using GraphPad Prism 8.3.1. Values that exceeded 100% survival (within +20% biological deviation) were normalized to 100% survival. Similarly, values below 0% cell survival (within −20% biological deviation) were normalized to 0% survival. Values exceeding this deviation were excluded. Dose–response curves were obtained using the model “log(inhibitor) vs. variable slope (normalized response)” to fit the dose–response curves and R^2 values were used to indicate how well the model fit the data (Supplementary Materials Figures S4 and S5). […] The maximum plasma concentration (Cmax) and the plasma concentration at steady state (Css) were used as toxicity thresholds. The Cmax was utilized for drugs in which short, high-dosage time courses are required, while the Css was used for maintenance therapy regimes such as anti-hormonal treatment. […] The IC50 values were calculated based on the Chou–Talalay method using Compusyn software [55]. For anti-hormonal treatment, mostly provided as maintenance therapy, we used IC10 values in addition to the IC50.
(§6) In addition to the 11 monotherapies, 12 drug combinations were tested (Table 3) simultaneously with the individual drug treatments in the same 384-well plate. […] Synergy was evaluated using the mass action law, a systematic analysis assessing dose–response dynamics in a cost-effective manner [56, 57]. The combination index (CI) was used to indicate antagonistic (CI > 1) additive (CI = 1) and synergistic (CI < 1) effects [55].

[3] = test system: GCPA113 T1.II patient-derived AGCT cell line; assay: Cell viability drug screen (Cell Titer Glo 2.0, 72 h), mono- and combination therapy, GCPA113T1.II; conditions: for DRI (Fa=0,5): GCPA113T1II; for IC50: Homo sapiens
Procedure: (§7) Cell lines were seeded at a density of 500 cells/well in 40 uL in 384-well plates (Corning, NY, USA) with the Multidrop™ cell dispenser (Thermo Fischer Scientific, Waltham, MA, USA) and sealed with Breathe-Easy® membrane (Sigma-Aldrich, St. Louis, MO, USA) to prevent evaporation. […] For each cell line, three biological repeats and two technical repeats each were performed in order to ensure the validity of the drug screens. […] Subsequently, 11 drugs and 12 drug combinations were dispensed and all wells (excluding blanks and non-DMSO control wells) were normalized to 1% DMSO using the HP Tecan D300e Digital Dispenser (Hewlett-Packard, Palo Alto, CA, USA). […] Next, the plates were covered with the Breathe-Easy membrane and incubated. After 72 h, the Multidrop dispensed 15 uL per well of Cell Titer Glo 2.0 (Thermo Fischer Scientific, Waltham, MA, USA) and plates were incubated in the dark for 10 min. After incubation, luminescence excitation was assessed in the Spectramax reader (Molecular Devices, San Jose, CA, USA) (top read, luminescence excitation at 500 nm) and raw data were processed in Microsoft Excel to subtract background luminescence. The Z-factor, a mathematical method used to quantify the quality of a drug screen based on the calculation of the separation band between the values of the positive and negative controls, was utilized to assess the quality of drug screens [54]. Screens with a Z-factor value of >0.5 were used for further analysis.
(§8) Overall cell survival (in %) was plotted against the drug concentration range of each drug (in log10[μM]) using GraphPad Prism 8.3.1. Values that exceeded 100% survival (within +20% biological deviation) were normalized to 100% survival. Similarly, values below 0% cell survival (within −20% biological deviation) were normalized to 0% survival. Values exceeding this deviation were excluded. Dose–response curves were obtained using the model “log(inhibitor) vs. variable slope (normalized response)” to fit the dose–response curves and R^2 values were used to indicate how well the model fit the data (Supplementary Materials Figures S4 and S5). […] The IC50 values were calculated based on the Chou–Talalay method using Compusyn software [55]. For anti-hormonal treatment, mostly provided as maintenance therapy, we used IC10 values in addition to the IC50.
as §6

[4] = test system: GCPA096 T1.I patient-derived AGCT cell line; assay: Cell viability drug screen (Cell Titer Glo 2.0, 72 h), mono- and combination therapy, GCPA096T1.I; conditions: for DRI (Fa=0,5): GCPA096T1I; for IC50: Homo sapiens, read-out: IC50 in monotherapy
Procedure: as §7, §8, §6

AGCT cell lines = assay: Cell viability drug screen (72 h), summary over AGCT cell lines (12 patient-derived, with or without KGN); type: cell-based, human; conditions: Homo sapiens; median over AGCT cell lines; read-out: median IC50 in monotherapy
[5] = test system: GCPA096 T1.V patient-derived AGCT cell line; assay: Cell viability drug screen (Cell Titer Glo 2.0, 72 h), mono- and combination therapy, GCPA096T1.V; conditions: for DRI (Fa=0,5): GCPA096T1V; for IC50: Homo sapiens, 72 h, read-out: IC50 in monotherapy
Procedure: as §4, §5, §6

[6] = test system: KGN cells (AGCT cell line); assay: Cell viability drug screen (Cell Titer Glo 2.0, 72 h), mono- and combination therapy, KGN; conditions: for IC50: Homo sapiens, read-out: IC50 in monotherapy
[7] = test system: GCPA108 T3.IV patient-derived AGCT cell line; assay: Cell viability drug screen (Cell Titer Glo 2.0, 72 h), mono- and combination therapy, GCPA108T3.IV; conditions: for DRI (Fa=0,5): GCPA108T3IV; for IC50: Homo sapiens, read-out: IC50 in monotherapy
[8] = test system: GCPA113 T1.I patient-derived AGCT cell line; assay: Cell viability drug screen (Cell Titer Glo 2.0, 72 h), mono- and combination therapy, GCPA113T1.I; conditions: for DRI (Fa=0,5): GCPA113T1I; for IC50: Homo sapiens
Procedure: as §7, §8, §6

[9] = test system: GCPA007 T2.IV patient-derived AGCT cell line; assay: Cell viability drug screen (Cell Titer Glo 2.0, 72 h), mono- and combination therapy, GCPA007T2.IV; conditions: for DRI (Fa=0,5): GCPA007T2IV; for IC50: Homo sapiens, read-out: IC50 in monotherapy
[10] = test system: GCPA096 T1.XV patient-derived AGCT cell line; assay: Cell viability drug screen (Cell Titer Glo 2.0, 72 h), mono- and combination therapy, GCPA096T1.XV; conditions: for DRI (Fa=0,5): GCPA096T1XV; for IC50: Homo sapiens, 72 h, read-out: IC50 in monotherapy
[11] = cited from earlier work
[12] = test system: GCPA007 T2.I patient-derived AGCT cell line; assay: Cell viability drug screen (Cell Titer Glo 2.0, 72 h), mono- and combination therapy, GCPA007T2.I; conditions: for IC50: Homo sapiens, 72 h, read-out: IC50 in monotherapy; for DRI (Fa=0,5): GCPA007T2I
Procedure: as §4, §5, §6

[13] = test system: GCPA028 T1.II patient-derived AGCT cell line; assay: Cell viability drug screen (Cell Titer Glo 2.0, 72 h), mono- and combination therapy, GCPA028; conditions: for IC50: Homo sapiens, read-out: IC50 in monotherapy
Procedure: as §4, §5, §6

[14] = test system: GCPA113 T1.III patient-derived AGCT cell line; assay: Cell viability drug screen (Cell Titer Glo 2.0, 72 h), mono- and combination therapy, GCPA113T1.III; conditions: for DRI (Fa=0,5): GCPA113T1III; for IC50: Homo sapiens
Procedure: as §7, §8, §6

[15] = test system: GCPA096 T1.II patient-derived AGCT cell line; assay: Cell viability drug screen (Cell Titer Glo 2.0, 72 h), mono- and combination therapy, GCPA096T1.II; conditions: for DRI (Fa=0,5): GCPA096T1II; for IC50: Homo sapiens, 72 h, read-out: IC50 in monotherapy
Procedure: as §4, §5, §6

[16] = test system: MCF-7 human breast cancer cell line; assay: Cell viability drug screen (72 h), MCF-7 positive control for anti-hormonal therapies; type: cell-based; conditions: monotherapy
Procedure: as §1, §2, §3

[17] = drug within Carbo+Pacli+Alpelisib
[18] = drug within Everolimus+Alpelisib
[19] = 72 h, read-out: IC50 in monotherapy
[20] = in combination Carbo+Pacli+Alpelisib
[21] = in combination Everolimus+Alpelisib

## Cc1nc(NC(=O)N2CCC[C@H]2C(N)=O)sc1-c1ccnc(C(C)(C)C(F)(F)F)c1 [Alpelisib]
[1]
  IC50: 7.55 µM
[2]; in Carbo+Pacli+Alpelisib
  DRI (Fa=0,5): 1.95
[2]; in Everolimus+Alpelisib
  DRI (Fa=0,5): 1.7
[2]; 72 h
  IC50: 23.5 µM
[2]
  IC50: 23.5 µM
[3]; [17]
  DRI (Fa=0,5): 1.81
[3]; [18]
  DRI (Fa=0,5): 1.09
[3]
  IC50: 21.4 µM
[3]; [19]
  IC50: 21.4 µM
[3]; read-out: IC50 in monotherapy
  IC50: 21.4 µM
[4]; [20]
  DRI (Fa=0,5): 1.7
[4]; [21]
  DRI (Fa=0,5): 1.24
[4]; 72 h
  IC50: 11.7 µM
[4]
  IC50: 11.7 µM
AGCT cell lines
  IC50: 15 µM
[5]; [17]
  DRI (Fa=0,5): 2.2
[5]; [18]
  DRI (Fa=0,5): 1.57
[5]
  IC50: 15 µM
[6]; 72 h
  IC50: 24.4 µM
[6]
  IC50: 24.4 µM
[6]; [17]
  DRI (Fa=0,5): 10.9278
[6]; [18]
  DRI (Fa=0,5): 1.384
[7]; in Carbo+Pacli+Alpelisib
  DRI (Fa=0,5): 13.6802
[7]; in Everolimus+Alpelisib
  DRI (Fa=0,5): 5.603
[7]; 72 h
  IC50: 53.9 µM
[7]
  IC50: 53.9 µM
[8]; in Carbo+Pacli+Alpelisib
  DRI (Fa=0,5): 3.06
[8]; in Everolimus+Alpelisib
  DRI (Fa=0,5): 0.95
[8]
  IC50: 9.59 µM
[8]; [19]
  IC50: 9.59 µM
[8]; read-out: IC50 in monotherapy
  IC50: 9.59 µM
[9]; [20]
  DRI (Fa=0,5): 4.44
[9]; [21]
  DRI (Fa=0,5): 10.73
[9]; 72 h
  IC50: 26.7 µM
[9]
  IC50: 26.7 µM
[10]; [17]
  DRI (Fa=0,5): 2.12
[10]; [18]
  DRI (Fa=0,5): 1.36
[10]
  IC50: 14.6 µM
[11]; human maximum or steady state plasma concentration, log10 of the uM value
  Cmax/Css plasma (Log 10): 0.84 Log 10
[11]; human plasma Cmax/Css, log10 of uM value, from phase I/II clinical trials
  Cmax/Css plasma (Log 10): 0.84 Log 10
[11]; human plasma maximum/steady state concentration, ref phase I/II clinical trials
  Cmax/Css plasma (Log 10): 0.84 Log 10
[11]; human plasma, maximum or steady state concentration, log10 of uM value
  Cmax/Css plasma (Log 10): 0.84
[11]; human plasma, log10 of uM, phase I/II trials
  Cmax/Css plasma (Log 10): 0.84
[11]; read-out: Cmax (maximum drug concentration achieved in plasma), human plasma, phase I/II studies
  Cmax: 6.9 µM and 6.92 µM
[11]; read-out: Cmax/Css plasma, human maximum or steady state plasma concentration
  Cmax: 6.92 µM
[11]; read-out: Cmax/Css plasma, human plasma Cmax/Css, from phase I/II clinical trials
  Cmax: 6.92 µM
[11]; read-out: Cmax/Css plasma, human plasma maximum/steady state concentration, ref phase I/II clinical trials
  Cmax: 6.92 µM
[11]; read-out: Cmax/Css plasma, human plasma, maximum or steady state concentration
  Cmax: 6.92 µM
[11]; read-out: Cmax/Css plasma, human plasma, phase I/II trials
  Cmax: 6.92 µM
[12]
  IC50: 22 µM
[12]; in Carbo+Pacli+Alpelisib (10:1:2)
  DRI (Fa=0,5): 10.78
[12]; in Everolimus+Alpelisib (1:2)
  DRI (Fa=0,5): 1.24
[13]; GCPA028, in combination Carbo+Pacli+Alpelisib
  DRI (Fa=0,5): 4.95
[13]; GCPA028, in combination Everolimus+Alpelisib
  DRI (Fa=0,5): 0.99
[13]; 72 h
  IC50: 22.8 µM
[13]
  IC50: 22.8 µM
[14]; [17]
  DRI (Fa=0,5): 5.76
[14]; [18]
  DRI (Fa=0,5): 1.89
[14]
  IC50: 11.5 µM
[14]; [19]
  IC50: 11.5 µM
[14]; read-out: IC50 in monotherapy
  IC50: 11.5 µM
[15]; [17]
  DRI (Fa=0,5): 2.15
[15]; [18]
  DRI (Fa=0,5): 1.5
[15]
  IC50: 12.6 µM

## CC(C)(C#N)c1cc(Cn2cncn2)cc(C(C)(C)C#N)c1 [Anastrozole]
[2]; 72 h
  IC50: > 200 µM
[3]; [19]
  IC50: > 200 µM
[4]; 72 h
  IC50: > 200 µM
[16]
  effect on cell viability at tolerable concentrations: did not decrease cell viability at tolerable concentrations
[5]
  IC50: > 200 µM
[6]; 72 h
  IC50: > 200 µM
[7]; 72 h
  IC50: > 200 µM
[8]; [19]
  IC50: > 200 µM
[9]; 72 h
  IC50: > 200 µM
[10]
  IC50: > 200 µM
[12]
  IC50: > 200 µM
[13]; 72 h
  IC50: > 200 µM
[14]; [19]
  IC50: > 200 µM
[15]
  IC50: > 200 µM
